Values quoted from earlier work as cited in US20250017885A1, “TREATMENT OF INCLUSION BODY MYOSITIS WITH PHENYLBUTYRATE AND MONITORING OF TREATMENT” (University of Kansas, priority 2023, published 2025).
Where two headings read alike, the source gives them in different places.

System: cultured human muscle fibers
Conditions: cultured human muscle fibers with experimentally-impaired autophagy, Nogalska et al. 2014, cited from earlier work

## O=C([O-])CCCc1ccccc1.[Na+] [NaPBA, Sodium phenylbutyrate]
  Aβ42 and Aβ42 oligomers: decreased Aβ42 and its oligomers
  Lysosomal dysfunction / lysosomal activity: improved lysosomal activity
  Muscle-fiber vacuolization: virtually prevented muscle-fiber vacuolization
  γ-secretase activity: decreased γ-secretase activity
Listed as NaPB
  Lysosomal dysfunction / lysosomal activity: reverses lysosomal dysfunction
